In article PMC11045757, “Group 3 medulloblastoma transcriptional networks collapse under domain specific EP300/CBP inhibition” (Nature Communications, 2024):
Several values for one entry are separate records, joined by “and”; a condition that tells them apart may be missing. Identical values can stand only once. Like-named read-outs stand apart in the source and are kept apart here.

Key:
Type in all cases: binding
BRD4-BD1 (BRD4-1) = biological target: T1, BRD4-BD1 (BRD4-1) (Homo sapiens, UniProt O60885); assay: Differential scanning fluorimetry (DSF) thermal shift; conditions: BRD4-BD1
T1 construct: BRD4-BD1 (residues 44-168); 6xHis (cleaved yes); host or cells: E. coli BL21 (DE3) RIL
Experimental: (§1) At OD600 of 0.6, the culture was cooled down to 18 °C and induced with 0.1 mM IPTG. After 18 h growth, the culture was harvested by centrifugation at 6000 × g for 25 min and stored at -80 °C. Harvested cell pellets were re-suspended in 50 mM Na/K phosphate buffer (pH 7.4) containing 100 mM NaCl, 40 mM imidazole, 0.01% w/v lysozyme and 0.01% v/v Triton X-100 at 4 °C for 1 h, subjected to sonication and the lysate was clarified by centrifugation (30,000 × g for 45 min at 4 °C). Proteins were purified by FPLC at 4 °C using columns and chromatography materials from GE Healthcare. […] Proteins were purified to homogeneity by size exclusion chromatography using Superdex 75 equilibrated with elution buffer (50 mM HEPES pH 7.5, 100 mM NaCl, 2 mM DTT). All BRDs eluted as monomeric protein and were of crystallization grade quality (>95% purity as judged by SDS-PAGE). Pool fractions were combined, concentrated to 10–12 mg/ml, and aliquots were flash-frozen in liquid N2 and stored at −80 °C.
(§2) DSF experiments were performed with an Applied Biosystem StepOnePlus real-time PCR system (Thermo Fisher Scientific) using 96-well format plates, assayed in quadruplicate. For thermal shift determination, 5 μM protein was mixed with 100 μM compound in 50 mM HEPES, pH 7.5, 150 mM NaCl, 2 mM DTT, 2% DMSO, 5X SYPRO Orange (Thermo Fisher Scientific) in 20 μL reaction volumes. Reaction mixtures were heated from 25 to 95 °C at 1 °C/min with fluorescence readings every 0.5 °C at 610 nm. The observed thermal shift (ΔTm) was recorded as the difference between the Tm of sample and DMSO reference wells.

EP300 bromodomain = biological target: T2, EP300 bromodomain (Homo sapiens, UniProt Q09472); assay: as above
T2 construct: 6xHis (cleaved yes); host or cells: E. coli BL21 (DE3) RIL
T2 sequence (Q09472 1048-1161): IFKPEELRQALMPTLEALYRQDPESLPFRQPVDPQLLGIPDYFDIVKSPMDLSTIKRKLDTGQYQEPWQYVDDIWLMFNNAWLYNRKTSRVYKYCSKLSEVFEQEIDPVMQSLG
Experimental: as §1, §2

[1] = biological target: GFP-tagged CBP bromodomain (Homo sapiens, UniProt Q92793); assay: Microscale thermophoresis (MST); conditions: for Response (Dose Response Curve): MST raw response; for Kd: MST; for Bound (Fit Results): fitted MST response of bound state; for Bound (Fit Results) / Unbound (Fit Results): target clGFP-CBPBRD 5e-8; for Unbound (Fit Results): fitted MST response of unbound state
Experimental: MST experiments were performed in a Monolith NT.115 Pico instrument (NanoTemper Technologies) following published procedures. […] MST traces were recorded using standard parameters: 5 s MST power off, 30 s MST power on and 5 s MST power off. Measurements were taken at -1-0 s (cold region) and 10 s (hot region) and data were analyzed using the NTAnalysis software.

CBP bromodomain = biological target: T3, CBP bromodomain (Homo sapiens, UniProt Q92793); assay: Differential scanning fluorimetry (DSF) thermal shift; conditions: for ΔTm (°C) CBP: DSF
T3 construct: CBP (residues 1081-1197); 6xHis (cleaved yes); host or cells: E. coli BL21 (DE3) RIL
Experimental: as §1, with “After” for “At OD600 of 0.6, the culture was cooled down to 18 °C and induced with 0.1 mM IPTG. After”, “All BRDs eluted as monomeric protein and were of crystallization grade quality (>95% purity as judged by SDS-PAGE).” left out
DSF experiments were performed with an Applied Biosystem StepOnePlus real-time PCR system (Thermo Fisher Scientific) using 96-well format plates, assayed in quadruplicate. For thermal shift determination, 5 μM protein was mixed with 100 μM compound in 50 mM HEPES, pH 7.5, 150 mM NaCl, 2 mM DTT, 2% DMSO, 5X SYPRO Orange (Thermo Fisher Scientific) in 20 μL reaction volumes.

[2] = Dose 1.52588e-10, single replicate run
[3] = Dose 3.05176e-10, single replicate run
[4] = Dose 6.10352e-10, single replicate run
[5] = Dose 1.2207e-9, single replicate run
[6] = Dose 2.44141e-9, single replicate run
[7] = Dose 4.88281e-9, single replicate run
[8] = Dose 9.76563e-9, single replicate run
[9] = Dose 1.95313e-8, single replicate run
[10] = Dose 3.90625e-8, single replicate run
[11] = Dose 7.8125e-8, single replicate run
[12] = Dose 1.5625e-7, single replicate run
[13] = Dose 3.125e-7, single replicate run
[14] = Dose 6.25e-7, single replicate run
[15] = Dose 1.25e-6, single replicate run
[16] = Dose 2.5e-6, single replicate run
[17] = Dose 5e-6, single replicate run
[18] = single replicate run, target clGFP-CBPBRD, TargetConcentration 5e-8, MST-Power Medium, unit inferred, read-out: Kd (Fit Results, Fit Model: Kd)

GFP-tagged CBP bromodomain, sequence (Q92793 1085-1192 limits assumed): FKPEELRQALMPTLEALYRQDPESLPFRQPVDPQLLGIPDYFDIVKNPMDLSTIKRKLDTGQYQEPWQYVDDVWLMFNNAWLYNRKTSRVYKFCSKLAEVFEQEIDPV
T3 sequence (Q92793 1081-1197): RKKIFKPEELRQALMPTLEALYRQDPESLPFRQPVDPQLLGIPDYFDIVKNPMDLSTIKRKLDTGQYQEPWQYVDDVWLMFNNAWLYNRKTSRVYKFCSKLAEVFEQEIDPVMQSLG

SMILES	Response (Dose Response Curve) [1, 2]	Response (Dose Response Curve) [1, 3]	Response (Dose Response Curve) [1, 4]	Response (Dose Response Curve) [1, 5]	Response (Dose Response Curve) [1, 6]	Response (Dose Response Curve) [1, 7]	Response (Dose Response Curve) [1, 8]	Response (Dose Response Curve) [1, 9]	Response (Dose Response Curve) [1, 10]	Response (Dose Response Curve) [1, 11]	Response (Dose Response Curve) [1, 12]	Response (Dose Response Curve) [1, 13]	Response (Dose Response Curve) [1, 14]	Response (Dose Response Curve) [1, 15]	Response (Dose Response Curve) [1, 16]	Response (Dose Response Curve) [1, 17]	Kd [1, 18]	Bound (Fit Results) ([1]; single replicate run)	Unbound (Fit Results) ([1]; single replicate run)	also measured
COc1ccc(CCc2nc3cc(-c4c(C)noc4C)ccc3n2C[C@H](C)N2CCOCC2)cc1Cl [SGC-CBP30]																				ΔTm (°C) (BRD4-BD1 (BRD4-1); DSF thermal shift vs DMSO, Fig 2B): 0 °C; ΔTm (°C) (EP300 bromodomain; DSF thermal shift vs DMSO, EP300 bromodomain, Fig 2B): 7.9 °C
COC1CCC(n2c(C3CCCC(=O)N3c3ccccc3)nc3cc(-c4c(C)noc4C)ccc32)CC1 (stereo not shown) [iCBP5-5]	915.174	914.49	915.362	915.368	914.907	914.429	913.858	914.04	913.557	913.257	911.399	910.65	909.717	910.942	910.368	911.15	44.3 nM	910.375	914.969	
COC1CCC(n2c(C3CCCC(=O)N3c3cccc(C(C)(C)C)c3)nc3cc(-c4c(C)noc4C)ccc32)CC1 (stereo not shown) [iCBP-6]	893.145 and 893.496 and 892.759	891.612 and 893.465 and 892.592	892.684 and 894.151 and 892.213	892.641 and 893.04 and 893.233	892.502 and 892.231 and 892.986	891.878 and 891.94 and 891.268	891.027 and 892.27 and 891.532	892.42 and 891.618 and 892.241	890.537 and 890.96 and 891.609	889.07 and 889.984 and 889.085	888.52 and 887.496 and 888.851	887.2 and 888.101 and 888.455	887.415 and 887.704 and 886.214	888.032 and 886.878 and 886.638	887.475 and 888.923 and 888.41	888.712 and 888.775 and 886.626	20 nM and 15.2 nM and 54.7 nM	887.696 and 887.896 and 886.89	892.536 and 893.196 and 892.626	ΔTm (°C) BRD4-BD1 (BRD4-BD1 (BRD4-1); Figure 3A, DSF): 3.2 °C; ΔTm (°C) EP300 (EP300 bromodomain; Figure 3B, DSF, EP300): 14.3 °C; ΔTm (°C) CBP (CBP bromodomain; Figure 3A, CBP bromodomain): 15.3 °C; ΔTm (°C) CBP (CBP bromodomain; Figure 3B, CBP): 15.3 °C; DSF ΔTm (°C) (CBP bromodomain; Figure 3C, DSF (values equal CBP column)): 15.3 °C; Kd ([1]; Figure 3C, read-out: MST Kd): 30 nM
